From US9469650B2, “Melampomagnolide B derivatives” (BOARD OF TRUSTEES OF THE UNIVERSITY OF ARKANSAS, priority 2013, dated 2016)

Columns and labels:
SNB-75 = assay: panel of 60 human tumor cell lines, growth inhibition (CNS Cancer); details: SNB-75
OVCAR-5 = assay: panel of 60 human tumor cell lines, growth inhibition (Ovarian Cancer); details: OVCAR-5
HS 578T = assay: panel of 60 human tumor cell lines, growth inhibition (Breast Cancer); details: HS 578T
OVCAR-3 = assay: panel of 60 human tumor cell lines, growth inhibition (Ovarian Cancer); details: OVCAR-3
HT29 = assay: panel of 60 human tumor cell lines, growth inhibition (Colon Cancer); details: HT29
SF-268 = assay: panel of 60 human tumor cell lines, growth inhibition (CNS Cancer); details: SF-268
NCI-H522 = assay: panel of 60 human tumor cell lines, growth inhibition (Non-Small Cell Lung Cancer); details: NCI-H522
A549/ATCC = assay: as above; details: A549/ATCC
K-562 = assay: panel of 60 human tumor cell lines, growth inhibition (Leukemia); details: K-562
UACC-257 = assay: panel of 60 human tumor cell lines, growth inhibition (Melanoma); details: UACC-257
TK-10 = assay: panel of 60 human tumor cell lines, growth inhibition (Renal Cancer); details: TK-10
SF-295 = assay: panel of 60 human tumor cell lines, growth inhibition (CNS Cancer); details: SF-295
HCT-116 = assay: panel of 60 human tumor cell lines, growth inhibition (Colon Cancer); details: HCT-116
HCT-15 = assay: as above; details: HCT-15
T-47D = assay: panel of 60 human tumor cell lines, growth inhibition (Breast Cancer); details: T-47D
BT-549 = assay: as above; details: BT-549
SW-620 = assay: panel of 60 human tumor cell lines, growth inhibition (Colon Cancer); details: SW-620
NCI-H322M = assay: panel of 60 human tumor cell lines, growth inhibition (Non-Small Cell Lung Cancer)

C=C1C(=O)O[C@H]2[C@H]1CC/C(COC(=O)NCCO)=C\CC[C@@]1(C)O[C@@H]21 [JVM 2-50]
Percent Growth (SNB-75; Log10 Concentration −4.0): −20%
Percent Growth (SNB-75; Log10 Concentration −5.0): 68%
Percent Growth (SNB-75; Log10 Concentration −6.0): 79%
Percent Growth (SNB-75; Log10 Concentration −7.0): 79%
Percent Growth (SNB-75; Log10 Concentration −8.0): 70%
GI50 (SNB-75; NCI five dose): 16 µM
TGI (SNB-75; NCI five dose): 5.92E−5
Percent Growth (OVCAR-5; Log10 Concentration −4.0): −54%
Percent Growth (OVCAR-5; Log10 Concentration −5.0): 68%
Percent Growth (OVCAR-5; Log10 Concentration −6.0): 85%
Percent Growth (OVCAR-5; Log10 Concentration −7.0): 91%
Percent Growth (OVCAR-5; Log10 Concentration −8.0): 89%
GI50 (OVCAR-5; NCI five dose): 14 µM
TGI (OVCAR-5; NCI five dose): 1.59E−5
Percent Growth (HS 578T; Log10 Concentration −4.0): 22%
Percent Growth (HS 578T; Log10 Concentration −5.0): 82%
Percent Growth (HS 578T; Log10 Concentration −6.0): 91%
Percent Growth (HS 578T; Log10 Concentration −7.0): 88%
Percent Growth (HS 578T; Log10 Concentration −8.0): 92%
GI50 (HS 578T; NCI five dose): 34.3 µM
TGI (HS 578T; NCI five dose): >1.00E−4
Percent Growth (OVCAR-3; Log10 Concentration −4.0): −93%
Percent Growth (OVCAR-3; Log10 Concentration −5.0): 40%
Percent Growth (OVCAR-3; Log10 Concentration −6.0): 103%
Percent Growth (OVCAR-3; Log10 Concentration −7.0): 106%
Percent Growth (OVCAR-3; Log10 Concentration −8.0): 103%
GI50 (OVCAR-3; NCI five dose): 6.27 µM
TGI (OVCAR-3; NCI five dose): 1.99E−5
Percent Growth (HT29; Log10 Concentration −4.0): −47%
Percent Growth (HT29; Log10 Concentration −5.0): 57%
Percent Growth (HT29; Log10 Concentration −6.0): 109%
Percent Growth (HT29; Log10 Concentration −7.0): 104%
Percent Growth (HT29; Log10 Concentration −8.0): 99%
GI50 (HT29; NCI five dose): 11.7 µM
TGI (HT29; NCI five dose): 3.55E−5
Percent Growth (SF-268; Log10 Concentration −4.0): −51%
Percent Growth (SF-268; Log10 Concentration −5.0): 90%
Percent Growth (SF-268; Log10 Concentration −6.0): 100%
Percent Growth (SF-268; Log10 Concentration −7.0): 99%
Percent Growth (SF-268; Log10 Concentration −8.0): 99%
GI50 (SF-268; NCI five dose): 19.3 µM
TGI (SF-268; NCI five dose): 4.38E−5
Percent Growth (NCI-H522; Log10 Concentration −4.0): −69%
Percent Growth (NCI-H522; Log10 Concentration −5.0): −56%
Percent Growth (NCI-H522; Log10 Concentration −6.0): 97%
Percent Growth (NCI-H522; Log10 Concentration −7.0): 104%
Percent Growth (NCI-H522; Log10 Concentration −8.0): 98%
GI50 (NCI-H522; NCI five dose): 2.03 µM
TGI (NCI-H522; NCI five dose): 4.30E−6
Percent Growth (A549/ATCC; Log10 Concentration −4.0): 3%
Percent Growth (A549/ATCC; Log10 Concentration −5.0): 93%
Percent Growth (A549/ATCC; Log10 Concentration −6.0): 96%
Percent Growth (A549/ATCC; Log10 Concentration −7.0): 92%
Percent Growth (A549/ATCC; Log10 Concentration −8.0): 96%
GI50 (A549/ATCC; NCI five dose): 30.2 µM
TGI (A549/ATCC; NCI five dose): >1.00E−4
Percent Growth (K-562; Log10 Concentration −4.0): −25%
Percent Growth (K-562; Log10 Concentration −5.0): 23%
Percent Growth (K-562; Log10 Concentration −6.0): 100%
Percent Growth (K-562; Log10 Concentration −7.0): 110%
Percent Growth (K-562; Log10 Concentration −8.0): 119%
GI50 (K-562; NCI five dose): 4.51 µM
TGI (K-562; NCI five dose): 3.02E−5
Percent Growth (UACC-257; Log10 Concentration −4.0): −73%
Percent Growth (UACC-257; Log10 Concentration −5.0): 44%
Percent Growth (UACC-257; Log10 Concentration −6.0): 65%
Percent Growth (UACC-257; Log10 Concentration −7.0): 90%
Percent Growth (UACC-257; Log10 Concentration −8.0): 95%
GI50 (UACC-257; NCI five dose): 7 µM
TGI (UACC-257; NCI five dose): 2.37E−5
Percent Growth (TK-10; Log10 Concentration −4.0): −91%
Percent Growth (TK-10; Log10 Concentration −5.0): 55%
Percent Growth (TK-10; Log10 Concentration −6.0): 110%
Percent Growth (TK-10; Log10 Concentration −7.0): 103%
Percent Growth (TK-10; Log10 Concentration −8.0): 100%
GI50 (TK-10; NCI five dose): 10.8 µM
Percent Growth (SF-295; Log10 Concentration −4.0): 44%
Percent Growth (SF-295; Log10 Concentration −5.0): 92%
Percent Growth (SF-295; Log10 Concentration −6.0): 95%
Percent Growth (SF-295; Log10 Concentration −7.0): 90%
Percent Growth (SF-295; Log10 Concentration −8.0): 88%
GI50 (SF-295; NCI five dose): 73.7 µM
TGI (SF-295; NCI five dose): 1.06E−4
Percent Growth (HCT-116; Log10 Concentration −4.0): −75%
Percent Growth (HCT-116; Log10 Concentration −5.0): 15%
Percent Growth (HCT-116; Log10 Concentration −6.0): 90%
Percent Growth (HCT-116; Log10 Concentration −7.0): 96%
Percent Growth (HCT-116; Log10 Concentration −8.0): 93%
GI50 (HCT-116; NCI five dose): 3.43 µM
TGI (HCT-116; NCI five dose): 1.48E−5
CC50 (HCT-116; read-out: LC50, NCI five dose): 53.2 µM
Percent Growth (HCT-15; Log10 Concentration −4.0): −71%
Percent Growth (HCT-15; Log10 Concentration −5.0): 16%
Percent Growth (HCT-15; Log10 Concentration −6.0): 94%
Percent Growth (HCT-15; Log10 Concentration −7.0): 95%
Percent Growth (HCT-15; Log10 Concentration −8.0): 93%
GI50 (HCT-15; NCI five dose): 3.7 µM
TGI (HCT-15; NCI five dose): 1.54E−5
Percent Growth (T-47D; Log10 Concentration −4.0): −54%
Percent Growth (T-47D; Log10 Concentration −5.0): 16%
Percent Growth (T-47D; Log10 Concentration −6.0): 69%
Percent Growth (T-47D; Log10 Concentration −7.0): 95%
Percent Growth (T-47D; Log10 Concentration −8.0): 89%
GI50 (T-47D; NCI five dose): 3.46 µM
TGI (T-47D; NCI five dose): 1.71E−5
Percent Growth (BT-549; Log10 Concentration −4.0): −91%
Percent Growth (BT-549; Log10 Concentration −5.0): 21%
Percent Growth (BT-549; Log10 Concentration −6.0): 83%
Percent Growth (BT-549; Log10 Concentration −7.0): 91%
Percent Growth (BT-549; Log10 Concentration −8.0): 85%
GI50 (BT-549; NCI five dose): 3.26 µM
TGI (BT-549; NCI five dose): 1.53E−5
Percent Growth (SW-620; Log10 Concentration −4.0): −71%
Percent Growth (SW-620; Log10 Concentration −5.0): 93%
Percent Growth (SW-620; Log10 Concentration −6.0): 101%
Percent Growth (SW-620; Log10 Concentration −7.0): 104%
Percent Growth (SW-620; Log10 Concentration −8.0): 102%
GI50 (SW-620; NCI five dose): 18.2 µM
TGI (SW-620; NCI five dose): 3.67E−5
Percent Growth (NCI-H322M; Log10 Concentration −4.0): 32%
Percent Growth (NCI-H322M; Log10 Concentration −5.0): 109%
Percent Growth (NCI-H322M; Log10 Concentration −6.0): 105%
Percent Growth (NCI-H322M; Log10 Concentration −7.0): 109%
Percent Growth (NCI-H322M; Log10 Concentration −8.0): 105%
GI50 (NCI-H322M; NCI five dose): 58.8 µM
TGI (NCI-H322M; NCI five dose): >1.00E−4
